Data set [1] can be described thus: PCNB concentration after gamma irradiation in samples of P. quinquefolium and in methanol solution. Type of data set: physicochemical. The settings on record: for concentration of the remaining PCNB / concentration of the remaining PCNB as compared to before treatment: 2 ppm PCNB in methanol solution.
Data set [2] is described as follows: Concentration of marker components (ginsenosides) in P. quinquefolium samples after gamma irradiation (HPLC). It is filed as physicochemical. Conditions: for concentration of marker components of P. quinquefolium (ginsenoside): mean ± SD, three repeats; for effect of gamma irradiation on concentration of marker components: 10 kGy and 15 kGy gamma irradiation, P. quinquefolium samples. The procedure: Samples of P. quinquefolium that have respectively received gamma irradiation in dosages of 0, 10, 15, and 20 kGy were analyzed to find out the concentration of marker components therein, with the samples that have not received gamma irradiation as the control group. To extract marker components from the samples for analysis, 10 g of the samples were taken and prepared in 50 ml of 70% aqueous methanol solution, and heated in a convection heater at 60° C. for 15 minutes, followed by centrifugation in order to obtain the extract solution. Subsequently, the residual of the samples were subjected to the above-mentioned procedure again, and the extracted solution from the two rounds of procedures were mixed together and filtered, followed by the addition of 70% aqueous methanol solution to bring the volume up to 100 ml; the resulted solution was then stored at −20° C. and analyzed within 3 days. Before carrying out the analysis of ingredients, an adequate amount of the resulted solution was underwent filtration through a 0.22 μm pore size membrane, and then 20 μl of the solution was injected into a high performance liquid chromatographer for analysis (HPLC, Waters model 2695) each time; the analyses were carried out in combination with UV light—Visible light sensor of Waters model 2487, and a silicon-based reverse phase C-18 column (Cosmosil 5C18-MS-II, 5 μm, 4.6×250 mm, Nacalai Tesque, Inc., Kyoto, Japan) was used for analyzing the marker components of P. quinquefolium in the solution. The marker components of P. quinquefolium tested in the experiment included ginsenoside Rb1, ginsenoside Rg1, ginsenoside Rc, ginsenoside Rd, and ginsenoside Re; the detection wavelength of UV light was 203 ηm. The solution of 15% aqueous phosphoric acid (H3PO4)—acetonitrile (CH3CN) (81:19 to 60:40) was used as the moving phase, and the moving phase was analyzed at 25° C. and 1.0 ml/min of flow velocity after being filtered with a 0.45 μm filtration membrane, so as to measure the concentration of the marker components in samples of P. quinquefolium that received various dosages of gamma irradiation.

The mark [3] stands for this setting: P. quinquefolium samples containing 2 ppm PCNB, 20 kGy.
Setting [4] is: 0 kGy gamma irradiation (control group).

Consider `O=[N+]([O-])c1c(Cl)c(Cl)c(Cl)c(Cl)c1Cl` [PCNB, pentachloronitrobenzene], for which, in data set [1] (20 kGy), the “concentration of the remaining PCNB” value is recorded as 0.056 ppm and the “concentration of the remaining PCNB as compared to before treatment” value turned out to be 2.79%. In addition, in data set [1] (25 kGy), the “concentration of the remaining PCNB” value is recorded as 0.008 ppm and the “concentration of the remaining PCNB as compared to before treatment” value stood at 0.86%. In addition, in data set [1] (setting [3]), the “PCNB concentration as % of the original concentration” value was determined as 4.01% and the PCNB concentration remaining came out at 0.08 ppm.
In the case of `CC(C)=CCC[C@](C)(O[C@@H]1O[C@H](CO)[C@@H](O)[C@H](O)[C@H]1O)[C@H]1CC[C@]2(C)[C@@H]1[C@H](O)C[C@@H]1[C@@]3(C)CC[C@H](O)C(C)(C)[C@@H]3[C@@H](O[C@@H]3O[C@H](CO)[C@@H](O)[C@H](O)[C@H]3O[C@@H]3O[C@@H](C)[C@H](O)[C@@H](O)[C@H]3O)C[C@]12C` [Re, ginsenoside Re], the “concentration of marker components of P. quinquefolium (ginsenoside)” value stood at 15.98 ± 0.50 mg/g in data set [2] (setting [4]), 15.79 ± 0.21 mg/g in data set [2] (10 kGy gamma irradiation), 15.04 ± 0.33 mg/g in data set [2] (15 kGy gamma irradiation) and 14.53 ± 0.14 mg/g in data set [2] (20 kGy gamma irradiation). The “effect of gamma irradiation on concentration of marker components” value in data set [2] is given as “would not affect”.
For the molecule `CC(C)=CCC[C@](C)(O[C@@H]1O[C@H](CO)[C@@H](O)[C@H](O)[C@H]1O)[C@H]1CC[C@]2(C)[C@@H]1[C@H](O)C[C@@H]1[C@@]3(C)CC[C@H](O)C(C)(C)[C@@H]3[C@@H](O[C@@H]3O[C@H](CO)[C@@H](O)[C@H](O)[C@H]3O)C[C@]12C` [Rg1, ginsenoside Rg1], the “concentration of marker components of P. quinquefolium (ginsenoside)” value stood at 1.56 ± 0.09 mg/g in data set [2] (setting [4]), 1.56 ± 0.06 mg/g in data set [2] (10 kGy gamma irradiation), 1.47 ± 0.03 mg/g in data set [2] (15 kGy gamma irradiation) and 1.43 ± 0.02 mg/g in data set [2] (20 kGy gamma irradiation). For the same molecule, the “effect of gamma irradiation on concentration of marker components” value in data set [2] is listed as “would not affect”.

The record behind these values is US20070281046A1, “Method for removing organic contaminants from Chinese herb medicines” (Committee on Chinese Medicine and Pharmacy, Department of …, priority 2006, published 2007).
